Test results as given in patent US9763996B2, “Polymyxin derivative and uses thereof” (Northern Antibiotics Ltd., priority 2015, dated 2017).
Converted amounts (≈) assume the structure as drawn. “Also recorded” adds a separate entry of the source. Like-named read-outs stand apart in the source and are kept apart here. Where a SMILES comes first, the peptide text is derived from it. Bridges are numbered along the chain shown (N, C = ends). [ ]: non-standard residue; d: D form. The star is where a group is joined. Octanoyl = CCCCCCCC(=O)*; Dab = NCC[C@H](N)C(=O)O

Legend:
E. coli JMI 3328 [1] = details: JMI 3328
P. aeruginosa JMI 7445 [2] = details: JMI 7445
E. coli JMI 109 [3] = details: JMI 109
K. pneumoniae JMI 27072 [4] = details: JMI 27072
A. baumannii CMI 417 [5] = details: alone; A. baumannii CMI 417 (polymyxin-nonsusceptible)
[6] = Toxicokinetics (plasma and urine) in cynomolgus monkeys; details: cynomolgus monkey, in vivo; for AUC: plasma
Description: (§1) For seven days, the animals were dosed by intravenous (IV) infusion three times daily (TID) at a dose volume of 10 mL/kg for 1 hour (±10 minutes), 8±0.5 hours apart. The day of initial dose administration was designated study Day 1, with subsequent days consecutively numbered. Days prior to the initial dose administration were consecutively numbered with the final day of acclimation referenced as Day −1.
(§2) The following parameters were evaluated at designed intervals: clinical observations, body weights, clinical pathology (hematology, coagulation, serum chemistry, urinalysis including urine sediments and urine chemistry), toxicokinetics (plasma and urine) and anatomic pathology (kidney). In cases of animals sacrificed on an unscheduled basis, samples were taken on the day of the sacrifice.
Plasma and urine concentrations for toxicokinetic (TK) studies were determined by using liquid chromatograph interfaced with a mass spectrometer after precipitation of proteins. A sample (100 μL) was mixed with internal standard solution in water:formic acid (99:1 v/v; […]). Then, 600 μL of 100:1 acetonitrile:formic acid was added. The plates were centrifuged at 3200 rpm for 5 minutes. Using a Tomtec Quadra96, a 450 μL aliquot was transferred to a new 96-well plate and dried under nitrogen at 40° C. Then, 200 μL of water:methanol:formic acid (85:15:1 1 v/v) was added and the plate sealed for LC-MS/MS injection. LC-MS system consisted of Waters Acquity liquid chromatograph interfaced with a Thermo Scientific TSQ Quantitative triple quadrupole MS with ionization in the positive ion mode. Each sample (20 μL) was injected onto a Waters Acquity BEH Shield RP18 column (2.1×50 mm; 1.7 μm) equilibrated at 50° C. Mobile Phase A was 85:15:1 v/v water:methanol:formic acid. Mobile Phase B was 50:50:1 v/v acetonitrile:methanol:formic acid.
Peak area ratios from the calibration standard responses were regressed using a (1/concentration^2) linear fit for polymyxin B using colistin as the internal standard. For NAB739 and NAB815, peak areas from the calibration standard responses were regressed using a (1/concentration^2) quadratic fit (without the use of an internal standard).
The regression models were chosen based upon the behavior of the analytes across the concentration range used during development.
Toxicokinetic analysis was performed by using WinNonlin Phoenix version 6.3 software (Pharsight, Cary, N.C.). For plasma TK, noncompartmental IV infusion model was used.
In the cynomolgus monkey studies described in Example 3, where the peptides were administered as a 1-hour intravenous infusion three times daily, plasma and urine levels of the peptides were determined.

K. pneumoniae ATCC 43816 [7] = details: ATCC 43816
A. baumannii ATCC 19606 [8] = details: ATCC 19606
[9] = 7-day IV infusion toxicity (nephrotoxicity) study in cynomolgus monkeys
Description: In vivo toxicity and toxicokinetic studies were performed by using cynomolgus monkeys. The laboratory that performed the animal studies is accredited by the Association for Assessment and Accreditation of Laboratory Animal Care (AAALAC), has an Animal Welfare Assurance issued by the Office of Laboratory Animal Welfare (OLAW), is registered with the United States Department of Agriculture (USDA), and has an Institutional Animal Care and Use Committee (IACUC) responsible for compliance with applicable laws and regulations concerning the humane care and use of laboratory animals.
Naïve female cynomolgus monkeys were acclimatized to study room for 28 days during which each animal was implanted with a permanent indwelling femoral catheter to permit continuous intravenous infusions. The animals were allowed surgical recovery period of at least 2 weeks before initiating dosing.
Polymyxin B sulfate was from Sigma-Aldrich (catalogue number P0972, lot number BCBF8382V). On each day of use, appropriate quantities of NAB739, NAB815 or polymyxin B were weighed and dissolved in appropriate volumes of sterile saline to prepare a stock solution for each test article and positive control. A correction factor was used in the stock solution preparation to account for both the purity and sulfate content in each test article. Accordingly, the dose (such as 36 mg/kg/d) refers to the dose of the pure peptide as its free base form, not as its sulfate salt.
The doses were the following: polymyxin B 18 mg/kg/d (Group 1), polymyxin B 24 mg/kg/d (Group 2), NAB739 24 mg/kg/d (Group 3), NAB739 36 mg/kg/d (Group 4), NAB815 24 mg/kg/d (Group 5), NAB815 36 mg/kg/d (Group 6). Three animals were included in each study groups.
as §1, §2
On the day of necropsy, animals were sedated with ketamine, weighed, and anesthetized with an intravenous injection of a commercial pentobarbital and phenytoin solution, followed by exsanguinations.
At necropsy, gross observations and organ weights were recorded, and specific tissues were collected. Histopathology was conducted on sections of kidney stained with hematoxylin and eosin (H&E).
The figures also show Urine N-acetyl-β-D-glucosaminidase/urine creatinine ratio (U-NAG/Crea; FIG. 3) and Urine Gamma Glutamyltransferase/urine creatinine ratio (U-GGT/Crea; FIG. 4), both urine biomarkers for kidney injury, in those animals. S-Crea and U-Crea were measured by using an Olympus Analyzer (OA) and the modified Jaffe method, S-BUN by using OA and urease/L-glutamate dehydrogenase. U-NAG was measured by using OA/enzymatic, and U-GGT by using OA and glutamyl-carboxy-p-nitroanilide IFCC.
The presence of the following nephro-pathological parameters was recorded in each animal: tubular basophilia (re-generation), tubular degeneration/necrosis, infiltration (by mononuclear and/or mixed inflammatory cells), tubular dilatation, and tubular casts.

P. aeruginosa = experiment: Synergy studies with rifampin; format: cell-based, Pseudomonas aeruginosa; details: against P. aeruginosa
Description: Synergy studies were performed by using polymyxin derivatives in combination with rifampin, a model compound for such antibacterial agents that the intact outer membrane of Gram-negative bacteria acts as a permeability barrier.

E. coli ATCC 25922 [10] = details: ATCC 25922
E. coli ATCC 25922 [11] = experiment: microbe, parasite or virus in culture; details: Escherichia coli, ATCC25922
A. baumannii ATCC 19606 [12] = experiment: microbe, parasite or virus in culture; details: Acinetobacter baumannii, ATCC19606
P. aeruginosa JMI 7445 [13] = experiment: microbe, parasite or virus in culture; details: Pseudomonas aeruginosa, JMI7445
K. pneumoniae JMI 27068 = experiment: microbe, parasite or virus in culture; details: Klebsiella pneumoniae, JMI27068
A. baumannii CMI 417 [14] = experiment: microbe, parasite or virus in culture; details: Acinetobacter baumannii, CMI417
E. coli JMI 109 [15] = experiment: microbe, parasite or virus in culture; details: Escherichia coli, JMI109
K. pneumoniae JMI 27072 [16] = experiment: microbe, parasite or virus in culture; details: Klebsiella pneumoniae, JMI27072
P. aeruginosa ATCC 27853 = experiment: MIC assay (CLSI broth microdilution; checkerboard with rifampin); details: Pseudomonas aeruginosa, ATCC27853
A. baumannii JMI 48125 = experiment: microbe, parasite or virus in culture; details: Acinetobacter baumannii, JMI48125
E. coli JMI 3328 [17] = experiment: microbe, parasite or virus in culture; details: Escherichia coli, JMI3328
K. pneumoniae ATCC 43816 [18] = experiment: microbe, parasite or virus in culture; details: Klebsiella pneumoniae, ATCC43816

For `CCCCCCCC(=O)N[C@H](C(=O)N[C@H](CO)C(=O)N[C@H]1CCNC(=O)[C@H]([C@@H](C)O)NC(=O)[C@H](CCN)NC(=O)[C@H](CCN)NC(=O)[C@H](CC(C)C)NC(=O)[C@@H](Cc2ccccc2)NC(=O)[C@H](CCN)NC1=O)[C@@H](C)O` [NAB739, octanoyl-Thr-DSer-[cyclo-α,γDab-αDab-DPhe-Leu-αDab-αDab-Thr]] (Octanoyl-T[dS][Dab][Dab][dF]L[Dab][Dab]T; lactam 3-C), the MIC (E. coli JMI 3328 [1]) was 2 µg/mL (≈ 1.86 µM), the MIC (P. aeruginosa JMI 7445 [2]) was 4 µg/mL (≈ 3.72 µM) and the MIC (E. coli JMI 109 [3]) was 32 µg/mL (≈ 29.7 µM). It also gave an MIC (K. pneumoniae JMI 27072 [4]) of 2 to 4 µg/mL, an MIC (A. baumannii CMI 417 [5]) of 128 µg/mL (≈ 119 µM) and an AUC ([6]; 36 mg/kg/day, AUCs, dosed at 36 mg/kg/d, day 1) of 239 µg·h/mL. The AUC ([6]; iv, 8 mg/kg, AUCs 0-8 h, after infusion of 8 mg/kg, day 1) was 108 µg·h/mL, the AUC ([6]; iv, 8 mg/kg, AUCs 0-8 h, after infusion of 8 mg/kg, day 7) was 137 µg·h/mL and the AUC ([6]; iv, 36 mg/kg/day, AUCs, dosed at 36 mg/kg/d, day 7) was 302 µg·h/mL. The dose excreted ([6]; female, iv, 36 mg/kg/d, urinary recoveries (0-8 h urine collection), 36 mg/kg/d, day 1, each animal) was 15.4%, the MIC (K. pneumoniae ATCC 43816 [7]) was 4 µg/mL (≈ 3.72 µM) and the MIC (A. baumannii ATCC 19606 [8]) was 4 µg/mL (≈ 3.72 µM). The “kidney injury markers (S-BUN, S-Crea, U-NAG/Crea, U-GGT/Crea)” value ([9]; 36 mg/kg/d IV TID 7 days) was “all the four markers were significantly elevated; also recorded: both urine biomarkers were remarkably elevated”, the “unscheduled necropsy / euthanized due to severe nephrotoxic effects” value ([9]; 36 mg/kg/d IV TID 7 days, 3 animals per group) was “One animal receiving NAB739 at 36 mg/kg/d had to be euthanized; also recorded: on Day 5 for one animal in the NAB739 group” and the “kidney histopathology findings (grade of nephro-pathological parameters)” value ([9]; 36 mg/kg/d IV TID, H&E kidney sections, per animal(s)) was “marked tubular degeneration/necrosis; also recorded: marked presence of tubular casts; also recorded: moderate findings, both in two parameters”. For the same molecule, the “synergistic activity with rifampin” value (P. aeruginosa) was “lacked any notable synergistic activity with rifampin” and the MIC (E. coli ATCC 25922 [10]) was 2 µg/mL (≈ 1.86 µM).
In the case of `CO[C@H]1/C=C/O[C@@]2(C)Oc3c(C)c(O)c4c(O)c(c(/C=N/N5CCN(C)CC5)c(O)c4c3C2=O)NC(=O)/C(C)=C\C=C\[C@H](C)[C@H](O)[C@@H](C)[C@@H](O)[C@@H](C)[C@H](OC(C)=O)[C@@H]1C` [rifampin], the MIC (E. coli ATCC 25922 [11]) was 8 µg/mL (≈ 9.72 µM), the MIC (A. baumannii ATCC 19606 [12]) was 4 µg/mL (≈ 4.86 µM) and the MIC (P. aeruginosa JMI 7445 [13]) was 32 µg/mL (≈ 38.9 µM). For the same molecule, the MIC (K. pneumoniae JMI 27068) was 64 µg/mL (≈ 77.8 µM), the MIC (A. baumannii CMI 417 [14]) was 4 µg/mL (≈ 4.86 µM) and the MIC (E. coli JMI 109 [15]) was 16 µg/mL (≈ 19.4 µM). It also gave an MIC (K. pneumoniae JMI 27072 [16]) of 8 µg/mL (≈ 9.72 µM), an MIC (P. aeruginosa ATCC 27853) of 32 µg/mL and an MIC (A. baumannii JMI 48125) of 4 µg/mL (≈ 4.86 µM). The MIC (E. coli JMI 3328 [17]) was 8 µg/mL (≈ 9.72 µM) and the MIC (K. pneumoniae ATCC 43816 [18]) was 16 µg/mL (≈ 19.4 µM).
